The source of these data is ChEMBL document CHEMBL1143213, “Anticancer activity of (1,2,3,5-tetrahydro-4,1-benzoxazepine-3-yl)-pyrimidines and -purines against the MCF-7 cell line: Preliminary cDNA microarray studies” (Bioorg Med Chem Lett, 2008).

By IC50 is commonly meant the concentration at which inhibition is half-maximal. A higher IC50 goes with lower potency.

Active and inactive are the calls of the source. The rule behind the calls is not given here.

The subject of one assay is MCF7. The assay is described as follows: Induction of ERN1 gene expression in human MCF7 cells by microarray. The assay is classed as functional, cell-based.
Settings: not given
In the case of `O=C(OCC1c2ccccc2-c2ccccc21)N1CC(n2cnc3c(Cl)ncnc32)OCc2ccccc21` (racemic), the result was Active.

The next assay has as its system MCF7. The assay is described as follows: Induction of GP132 gene expression in human MCF7 cells by microarray. The assay is classed as functional, cell-based.
Settings: not given
As to `O=C(OCC1c2ccccc2-c2ccccc21)N1CC(n2cnc3c(Cl)ncnc32)OCc2ccccc21` (racemic), the result was Active.

The next assay deals with MCF7. Briefly: Down regulation of RAC1 gene expression in human MCF7 cells by microarray. The assay is classed as functional, cell-based.
Settings: not given
On to `O=[N+]([O-])c1ccc(S(=O)(=O)N2CC(n3cnc4ncnc(Sc5ccccc5)c43)OCc3ccccc32)cc1` (stereo unspecified), for which the result was Active.

For a further assay, the system named is MCF7. Briefly: Antiproliferative activity against human MCF7 cells. Type of assay: functional, cell-based. The following applies: Homo sapiens, MCF7.
For `O=S1(=O)CC(n2cnc3c(Cl)ncnc32)OCc2ccccc21` (stereo unspecified), the IC50 turned out to be 1.25 µM.
Still for that read-out and setting: next, `COC(CN(C(=O)c1ccccc1)c1ccccc1CO)n1cc(F)c(=O)[nH]c1=O` (stereo unspecified): 16.1 µM; `COC(CN(c1ccccc1CO)S(=O)(=O)c1ccc([N+](=O)[O-])cc1)n1cc(F)c(=O)[nH]c1=O` (stereo unspecified): 55.2 µM; `Nc1ccccc1S(=O)(=O)N1CC(n2cc(F)c(=O)[nH]c2=O)OCc2ccccc21` (stereo unspecified): 54.8 µM.
Still for that read-out and setting: next, `O=c1[nH]cc(F)c(=O)n1C1CN(S(=O)(=O)c2ccccc2[N+](=O)[O-])c2ccccc2CO1` (stereo unspecified): 22.6 µM; `Clc1ncnc2ncn(C3CSc4ccccc4CO3)c12` (stereo unspecified): 1.25 µM; `Clc1ncnc2ncn(C3COc4ccccc4CO3)c12` (stereo unspecified): 1.25 µM.
`Ic1ncnc2ncn(C3COc4ccccc4CO3)c12` (stereo unspecified) gave an IC50 of 1.25 µM.
Still for that read-out and setting: as for `O=[N+]([O-])c1ccccc1S(=O)(=O)N1CC(n2cnc3c(Cl)ncnc32)OCc2ccccc21` (stereo unspecified), the figure is 2.1 µM; as for `COC(CN(c1ccccc1CO)S(=O)(=O)c1ccccc1N)n1cc(F)c(=O)[nH]c1=O` (stereo unspecified), above 100 µM.
The same measure, in the same setting: next, `O=c1[nH]c(=O)n(C2CNc3ccccc3CO2)cc1F` (stereo unspecified): above 100 µM; `O=c1[nH]c(=O)n(C2CN(S(=O)(=O)c3ccccc3[N+](=O)[O-])c3ccccc3CO2)cc1F` (stereo unspecified): 19.7 µM.
On the same count and under the same terms, next, `Nc1ccc(S(=O)(=O)N2CC(n3cc(F)c(=O)[nH]c3=O)OCc3ccccc32)cc1` (stereo unspecified): 14.4 µM.
In turn, `O=[N+]([O-])c1ccccc1S(=O)(=O)N1CC(n2cnc3ncnc(Sc4ccccc4)c32)OCc2ccccc21` (stereo unspecified) gave a half-inhibitory concentration (IC50) of 2.59 µM. Compared with the last compound, the IC50 is about 5.6-fold lower.
Still for that read-out and setting: as for `O=c1ccn(C2COc3ccccc3CO2)c(=O)[nH]1` (stereo unspecified), the figure is 1.25 µM; as for `O=c1ccn(C2CN(S(=O)(=O)c3ccc([N+](=O)[O-])cc3)c3ccccc3CO2)c(=O)[nH]1` (stereo unspecified), 39.8 µM.
The same measure, in the same setting: as for `Clc1ncnc2c1ncn2C1COc2ccccc2CO1` (stereo unspecified), the figure is 1.25 µM; as for `O=c1ccn(C2CN(S(=O)(=O)c3ccccc3[N+](=O)[O-])c3ccccc3CO2)c(=O)[nH]1` (stereo unspecified), 45.2 µM; as for `O=c1[nH]cc(F)c(=O)n1C1CNc2ccccc2CO1` (stereo unspecified), 72.4 µM.
The same measure, in the same setting: as for `O=c1cc[nH]c(=O)n1C1CN(S(=O)(=O)c2ccc([N+](=O)[O-])cc2)c2ccccc2CO1` (stereo unspecified), the figure is 44.3 µM.
Compound `FC(F)(F)c1ncnc2c1ncn2C1COc2ccccc2CO1` (stereo unspecified) returned an IC50 of 1.25 µM.
Same read-out and setting: next, `Clc1nc(Cl)c2c(ncn2C2COc3ccccc3CO2)n1` (stereo unspecified): 1.25 µM; `O=c1cc[nH]c(=O)n1C1CN(S(=O)(=O)c2ccccc2[N+](=O)[O-])c2ccccc2CO1` (stereo unspecified): 50.9 µM; `O=C(OCC1c2ccccc2-c2ccccc21)N1CC(n2cnc3ncnc(O)c32)OCc2ccccc21` (stereo unspecified): 53.6 µM.
On the same count and under the same terms, as for `c1ccc(Sc2ncnc3ncn(C4CNc5ccccc5CO4)c23)cc1` (stereo unspecified), the figure is 48.9 µM; as for `O=C(OCC1c2ccccc2-c2ccccc21)N1CC(n2cnc3ncnc(Cl)c32)OCc2ccccc21` (stereo unspecified), 0.84 µM; as for `COC(CN(c1ccccc1CO)S(=O)(=O)c1ccc([N+](=O)[O-])cc1)n1cnc2c(Cl)ncnc21` (stereo unspecified), 18.7 µM.
On the same count and under the same terms, as for `COc1ccc2c(c1)COC(n1cc(F)c(=O)[nH]c1=O)CO2` (stereo unspecified), the figure is 1.25 µM; as for `O=[N+]([O-])c1ccccc1S(=O)(=O)N1CC(n2cnc3ncnc(O)c32)OCc2ccccc21` (stereo unspecified), 19.7 µM; as for `O=[N+]([O-])c1ccc(S(=O)(=O)N2CC(n3cnc4ncnc(Sc5ccccc5)c43)OCc3ccccc32)cc1` (stereo unspecified), 0.86 µM.
In turn, `O=c1[nH]cc(F)c(=O)n1C1CN(S(=O)(=O)c2ccc([N+](=O)[O-])cc2)c2ccccc2CO1` (stereo unspecified) came in with an IC50 of 19.8 µM.
Same read-out and setting: as for `COC(CN(c1ccccc1CO)S(=O)(=O)c1ccccc1[N+](=O)[O-])n1ccc(=O)[nH]c1=O` (stereo unspecified), the figure is 64.8 µM; as for `COC(CN(c1ccccc1CO)S(=O)(=O)c1ccccc1[N+](=O)[O-])n1cc(F)c(=O)[nH]c1=O` (stereo unspecified), 91 µM.
With `O=[N+]([O-])c1ccccc1S(=O)(=O)N1CC(n2cnc3ncnc(Cl)c32)OCc2ccccc21` (stereo unspecified), the half-inhibitory concentration (IC50) is 0.92 µM.
`COC(CN(c1ccccc1CO)S(=O)(=O)c1ccc([N+](=O)[O-])cc1)n1ccc(=O)[nH]c1=O` (stereo unspecified) showed a half-inhibitory concentration (IC50) of 45.8 µM.
The same measure, in the same setting: as for `Nc1ccccc1S(=O)(=O)N1CC(n2cnc3ncnc(Cl)c32)OCc2ccccc21` (stereo unspecified), the figure is 9.14 µM; as for `COC(CNc1ccccc1CO)n1cc(F)c(=O)[nH]c1=O` (stereo unspecified), 36 µM.
On the same count and under the same terms, as for `Ic1ncnc2c1ncn2C1COc2ccccc2CO1` (stereo unspecified), the figure is 1.25 µM; as for `O=c1[nH]c(=O)n(C2CN(S(=O)(=O)c3ccc([N+](=O)[O-])cc3)c3ccccc3CO2)cc1F` (stereo unspecified), 19.3 µM; as for `O=[N+]([O-])c1ccc(S(=O)(=O)N2CC(n3cnc4ncnc(Cl)c43)OCc3ccccc32)cc1` (stereo unspecified), 1.22 µM.
`COC(CN(c1ccccc1CO)S(=O)(=O)c1ccc([N+](=O)[O-])cc1)n1c(=O)cc[nH]c1=O` (stereo unspecified) returned a half-inhibitory concentration (IC50) of 55.2 µM.
Same read-out and setting: next, `O=[N+]([O-])c1ccc(S(=O)(=O)N2CC(n3cnc4c(Cl)ncnc43)OCc3ccccc32)cc1` (stereo unspecified): 2.73 µM.
The same measure, in the same setting: next, `Clc1ncnc2c1ncn2C1CSc2ccccc2CO1` (stereo unspecified): 1.25 µM.
Compound `O=C(OCC1c2ccccc2-c2ccccc21)N1CC(n2cnc3c(Cl)ncnc32)OCc2ccccc21` (racemic) displayed an IC50 of 0.67 µM.
Same read-out and setting: next, `Nc1ccccc1S(=O)(=O)N1CC(n2c(=O)[nH]cc(F)c2=O)OCc2ccccc21` (stereo unspecified): 43.7 µM; `Clc1nc(Cl)c2ncn(C3COc4ccccc4CO3)c2n1` (stereo unspecified): 1.25 µM.
Same read-out and setting: next, `O=[N+]([O-])c1ccc(S(=O)(=O)N2CC(n3cnc4ncnc(O)c43)OCc3ccccc32)cc1` (stereo unspecified): above 100 µM.

The assay is the same for the next values; noted with them: mcf7.
In the case of `COC(CN(c1ccccc1CO)S(=O)(=O)c1ccccc1[N+](=O)[O-])n1cnc2c(Cl)ncnc21` (stereo in doubt; 51), half-maximal inhibition (IC50) was put at 11.3 µM.
